Activity calls are given as the source filed them. The calls are words filed in the database; no cut-off is given here.
What was measured:
[1] = molecular target: T1, NAD-dependent protein deacetylase sirtuin-3, mitochondrial (Homo sapiens) (UniProt Q9NTG7); assay: Inhibition of recombinant His-tagged SIRT3 (unknown origin) using Fluor de Lys acetylated KI179 as substrate at 200 uM incubated for 5 mins followed by enzyme addition measured after 1 hr by fluorescence assay relative to control
T1 sequence (whole entry): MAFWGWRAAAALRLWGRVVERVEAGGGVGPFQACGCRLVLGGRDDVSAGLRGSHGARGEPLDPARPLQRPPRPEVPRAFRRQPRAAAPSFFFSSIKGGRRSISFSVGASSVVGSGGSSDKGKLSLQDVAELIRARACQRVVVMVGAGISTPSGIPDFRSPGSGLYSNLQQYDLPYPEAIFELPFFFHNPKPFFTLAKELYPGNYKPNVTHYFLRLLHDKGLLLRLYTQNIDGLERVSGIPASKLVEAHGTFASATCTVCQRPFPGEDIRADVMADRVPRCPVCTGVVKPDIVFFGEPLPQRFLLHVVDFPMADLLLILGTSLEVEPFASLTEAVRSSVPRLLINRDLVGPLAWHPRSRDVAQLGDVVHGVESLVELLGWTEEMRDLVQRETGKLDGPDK

[2] = molecular target: T2, NAD-dependent protein deacetylase sirtuin-1 (Homo sapiens) (UniProt Q96EB6); assay: Inhibition of recombinant GST-tagged SIRT1 (unknown origin) using Fluor de Lys acetylated KI177 as substrate at 200 uM incubated for 5 mins followed by enzyme addition measured after 1 hr by fluorescence assay relative to control
T2 sequence (whole entry): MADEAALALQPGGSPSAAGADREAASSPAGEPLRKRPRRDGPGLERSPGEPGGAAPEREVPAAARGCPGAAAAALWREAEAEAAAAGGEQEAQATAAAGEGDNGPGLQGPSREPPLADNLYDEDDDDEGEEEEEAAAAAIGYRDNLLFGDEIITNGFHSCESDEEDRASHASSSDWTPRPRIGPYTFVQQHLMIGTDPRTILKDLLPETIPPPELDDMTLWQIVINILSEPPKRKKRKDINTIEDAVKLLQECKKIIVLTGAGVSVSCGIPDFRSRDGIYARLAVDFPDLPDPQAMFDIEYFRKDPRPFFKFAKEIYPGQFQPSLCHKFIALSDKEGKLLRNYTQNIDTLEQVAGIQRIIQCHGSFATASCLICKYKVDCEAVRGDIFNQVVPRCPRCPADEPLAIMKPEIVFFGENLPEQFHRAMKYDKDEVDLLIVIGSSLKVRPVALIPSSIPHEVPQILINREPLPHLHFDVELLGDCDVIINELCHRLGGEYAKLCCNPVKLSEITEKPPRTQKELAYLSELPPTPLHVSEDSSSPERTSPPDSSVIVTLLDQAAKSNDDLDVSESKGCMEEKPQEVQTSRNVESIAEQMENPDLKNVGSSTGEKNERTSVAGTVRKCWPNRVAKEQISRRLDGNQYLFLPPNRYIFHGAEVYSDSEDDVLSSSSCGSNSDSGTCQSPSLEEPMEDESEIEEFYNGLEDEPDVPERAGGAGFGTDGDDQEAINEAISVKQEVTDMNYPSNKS

[3] = molecular target: T3, NAD-dependent protein deacetylase sirtuin-2 (Homo sapiens) (UniProt Q8IXJ6); assay: Inhibition of recombinant GST-tagged SIRT2 (unknown origin) using Fluor de Lys acetylated KI179 as substrate at 200 uM incubated for 5 mins followed by enzyme addition measured after 1 hr by fluorescence assay relative to control
T3 sequence (whole entry): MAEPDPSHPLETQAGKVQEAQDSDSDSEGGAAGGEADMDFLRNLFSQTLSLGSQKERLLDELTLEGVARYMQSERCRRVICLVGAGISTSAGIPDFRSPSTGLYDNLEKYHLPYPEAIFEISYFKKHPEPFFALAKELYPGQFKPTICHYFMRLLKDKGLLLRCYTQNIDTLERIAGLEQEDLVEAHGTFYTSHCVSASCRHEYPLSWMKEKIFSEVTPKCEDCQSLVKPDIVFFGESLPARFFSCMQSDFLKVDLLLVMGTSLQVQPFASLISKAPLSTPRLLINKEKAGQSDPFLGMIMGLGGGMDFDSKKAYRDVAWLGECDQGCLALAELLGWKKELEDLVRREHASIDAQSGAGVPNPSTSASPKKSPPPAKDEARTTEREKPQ

inhibition [1] [%] | inhibition [2] | inhibition [3] [%] | SMILES
16 |  |  | O=C(Cc1ccccc1)Nc1ccc2oc(-c3ccccc3F)nc2c1
41 |  |  | O=C(Cc1ccccc1)Nc1ccc2oc(-c3cc(F)c(F)cc3Cl)nc2c1
33 |  |  | O=C(Cc1ccccc1)Nc1ccc2oc(-c3ccccc3Br)nc2c1
17 |  |  | O=C(Cc1ccc(Cl)cc1)Nc1ccc2oc(-c3ccccc3F)nc2c1
44 |  |  | COc1cccc(-c2nc3cc(NC(=O)Cc4ccccc4)ccc3o2)c1
17 |  |  | Cc1ccc(-c2nc3cc(NC(=O)Cc4ccccc4)ccc3o2)cc1
6.5 |  |  | O=C1CC(N2CCN(c3ccc(O)cc3)CC2)C(=O)N1c1ccccc1 (stereo not given)
5.6 |  |  | COc1ccc(N2C(=O)CC(N3CCN(c4ccc(S(C)(=O)=O)cc4)CC3)C2=O)cc1 (stereo not given)
17 |  |  | O=C(Cc1ccccc1)Nc1ccc2oc(-c3cccc(Cl)c3)nc2c1
13 |  |  | O=C1CC(N2CCN(c3cccc(C(F)(F)F)c3)CC2)C(=O)N1c1cccc(Cl)c1 (stereo not given)
8.4 |  |  | COc1ccc(N2C(=O)CC(N3CCN(c4ccccc4O)CC3)C2=O)cc1 (stereo not given)
38 |  |  | O=C(/C=C/c1ccccc1)Nc1ccc2oc(-c3ccccc3F)nc2c1
72 |  |  | O=C1C(Cl)=C(Nc2cccc(O)c2)C(=O)N1CCc1ccccc1
11 |  |  | O=C(c1ccccc1)N1CCN(C2CC(=O)N(c3cccc(Cl)c3)C2=O)CC1 (stereo not given)
22 |  |  | O=C(Nc1ccc(Nc2ccccc2)cc1)c1c(Cl)cccc1Cl
11 |  |  | O=C1CC(N2CCN(c3cccc(C(F)(F)F)c3)CC2)C(=O)N1c1ccc(I)cc1 (stereo not given)
6.7 |  |  | CC(=O)Nc1ccc(NC(=O)CCC(=O)OCC(=O)c2cccc([N+](=O)[O-])c2)cc1
51 | 17% | 44 | O=C(Cc1ccccc1)Nc1ccc2oc(-c3ccccc3Cl)nc2c1
6.9 |  |  | O=C1CC(N2CCN(c3ccc(F)cc3)CC2)C(=O)N1Cc1ccccc1 (stereo not given)
7.5 |  |  | O=C(NCC1CCN(Cc2ccccc2Cl)CC1)Nc1cccc(Cl)c1
16 |  |  | COc1ccc(CCNC2CC(=O)N(CCc3ccc(OC)c(OC)c3)C2=O)cc1OC (stereo not given)
6.4 |  |  | O=C1CC(N2CCN(c3ccc(F)cc3)CC2)C(=O)N1c1ccc2c(c1)OCO2 (stereo not given)
13 |  |  | O=C(Cc1ccccc1)Nc1ccc2oc(-c3ccc(F)cc3Cl)nc2c1
5 |  |  | CCOc1ccc(N2C(=O)CC(N3CCN(C(=O)c4ccccc4)CC3)C2=O)cc1 (stereo not given)

inhibition [1] [%] | inhibition [2] | inhibition [3] [%] | SMILES
48 | 27% | 78 | O=C(/C=C/c1ccccc1)Nc1ccc2oc(-c3ccccc3Cl)nc2c1
32 |  |  | Cc1cccc(-c2nc3cc(NC(=O)Cc4ccccc4)ccc3o2)c1
48 | 19% | 40 | O=C(Cc1ccccc1)Nc1ccc2oc(-c3cccc(Cl)c3Cl)nc2c1
7.6 |  |  | COc1ccc(N2C(=O)CC(NCCc3ccc(S(N)(=O)=O)cc3)C2=O)cc1 (stereo not given)
11 |  |  | NS(=O)(=O)c1ccc(CCNC2CC(=O)N(c3ccc(Cl)c(Cl)c3)C2=O)cc1 (stereo not given)
6.8 |  |  | COc1cccc(-c2noc(CCC(=O)Nc3ccc(NC(C)=O)cc3)n2)c1
5.6 |  |  | Cc1cccc(CN2CCC(CNC(=O)NCc3ccc(F)cc3)CC2)c1
13 |  |  | Cc1cccc(N2C(=O)CC(N3CCN(c4cccc(C(F)(F)F)c4)CC3)C2=O)c1 (stereo not given)
6.3 |  |  | O=C(CSCC(=O)Nc1ccc2ccccc2c1)NCc1ccccc1
6.6 |  |  | Cc1ccc(N2C(=O)CC(N3CCN(c4ccc(F)cc4)CC3)C2=O)cc1 (stereo not given)
74 |  |  | O=C1CC(N2CCN(c3ccc([N+](=O)[O-])cc3)CC2)C(=O)N1c1ccccc1 (stereo not given)
20 |  |  | O=C1CC(N2CCN(c3cccc(C(F)(F)F)c3)CC2)C(=O)N1c1ccc(Cl)cc1 (stereo not given)
65 | 33% | 73 | O=C(Cc1ccccc1)Nc1ccc2oc(-c3cc(Cl)ccc3Cl)nc2c1
15 |  |  | O=C1CC(N2CCC(Cc3ccccc3)CC2)C(=O)N1c1ccc(F)cc1 (stereo not given)
10 |  |  | Cc1ccccc1CC1CCN(CCCNC(=O)Nc2ccccc2)CC1
39 | inactive | 35 | O=C(CSc1ncnc2c1oc1ccccc12)Nc1cccc(O)c1
71 | 27% | 72 | O=C(Cc1ccccc1)Nc1ccc2oc(-c3ccc(Cl)cc3Cl)nc2c1
1.9 |  |  | O=C(CCC(=O)Nc1ccc(F)c(Cl)c1)Nc1ccc(F)c(Cl)c1
7.5 |  |  | Cc1ccc(NC(=O)NCC2CCN(Cc3cc(C)ccc3Cl)CC2)c(C)c1
34 |  |  | NS(=O)(=O)c1ccc(NC(=O)COC(=O)CN2C(=O)C(=O)c3ccccc32)cc1
13 |  |  | O=C(Cc1ccccc1)Nc1ccc2oc(-c3ccc(Cl)cc3)nc2c1
10 |  |  | CCOc1ccc(N2C(=O)CC(N3CCN(C(=O)c4cccnc4)CC3)C2=O)cc1 (stereo not given)
9.2 |  |  | O=C1CC(N2CCN(c3ccc(Cl)cc3)CC2)C(=O)N1c1ccc(F)cc1 (stereo not given)
32 |  |  | O=C(Cc1ccc(Cl)cc1)Nc1ccc2oc(-c3ccccc3Br)nc2c1

Reference: ChEMBL document CHEMBL2380241, “Identification of novel SIRT3 inhibitor scaffolds by virtual screening” (Bioorg Med Chem Lett, 2013)
